# According to patent US5846720A, “Methods of determining chemicals that modulate expression of genes associated with cardiovascular disease” (Oncogene Science, Inc., priority 1996, dated 1998):
# What was measured:
# [1] = tested on: hGH promoter; experiment: hGH promoter/luciferase reporter assay (high-throughput screen I), 532 cells; type: cell-based, rat; conditions: Table 2, 6 h incubation; for hGH fold inhibition relative to solvent control: transcriptional inhibitors; for hGH fold induction relative to solvent control: transcriptional activators
# Text: 6. a GC rat pituitary cell line, transfected with the growth hormone reporter plasmid, designated 532, deposited under ATCC Accession No. CRL 10663.
# [2] = tested on: MMTV promoter; experiment: MMTV promoter/luciferase reporter assay (high-throughput screen I, control for specificity), M10 cells; type: cell-based, mouse; conditions: Table 2, 6 h incubation; for MMTV fold inhibition relative to solvent control: transcriptional inhibitors; for MMTV fold induction relative to solvent control: transcriptional activators, original high-throughput assay
# Protocol: pMluci and pSV2Neo, an antibiotic resistance plasmid (84), were co-transfected into NIH/3T3 mouse fibroblast cells using the calcium phosphate precipitation method (85) with a commercially available kit (Pharmacia, Piscataway N.J.). Two days later, cells were transferred to media containing 0.4 mg/ml G418 and were grown for an additional 10-14 days. G418-resistant clones were isolated by standard methods. Once sufficient cell numbers were obtained, clones were analyzed based on several criteria: constitutive luciferase production, induction of luciferase expression by dexamethasone ([…], Sigma, St. Louis, Mo.), satisfactory attachment to microtiter plates used in the high-throughput screen (see section G) and acceptable standard deviation in multiple luciferase expression assays (see below for assay protocol). This analysis was carried out using the luciferase assay conditions described above. Of the clones which satisfied the above criteria for the high throughput screen, one clone, M10, was selected for use.
# [3] = tested on: G-CSF promoter; experiment: G-CSF promoter/luciferase reporter assay (high-throughput screen I), G21 cells; conditions: Table 2, 6 h incubation; for GCSF fold inhibition relative to solvent control: transcriptional inhibitors; for GCSF fold induction relative to solvent control: transcriptional activators
compound,measurement,setting,value
O=S(=O)(O)c1ccc(-c2ccnc(-c3nnc(-c4ccc(S(=O)(=O)O)cc4)c(-c4ccc(S(=O)(=O)O)cc4)n3)c2)cc1 [Chemical 1648],hGH fold inhibition relative to solvent control,[1],7.69 fold
same,MMTV fold inhibition relative to solvent control,[2],1.00 fold
same,GCSF fold inhibition relative to solvent control,[3],0.86 fold
COC(=O)CP(=O)(OCC(F)(F)F)OCC(F)(F)F [Chemical 1651],hGH fold inhibition relative to solvent control,[1],3.57 fold
same,MMTV fold inhibition relative to solvent control,[2],0.70 fold
same,GCSF fold inhibition relative to solvent control,[3],0.69 fold
O=C(O)c1cc(C(F)(F)F)ccc1C(F)(F)F [Chemical 1655],hGH fold inhibition relative to solvent control,[1],4.76 fold
same,MMTV fold inhibition relative to solvent control,[2],0.81 fold
same,GCSF fold inhibition relative to solvent control,[3],0.54 fold
OCC1CC2C3CC(CO)C(C3)C2C1 (stereo not drawn) [Chemical 1678],hGH fold induction relative to solvent control,[1],7.08 fold
same,MMTV fold induction relative to solvent control,[2],0.89 fold
same,GCSF fold induction relative to solvent control,[3],0.36 fold
N#Cc1cccc(Br)c1 [Chemical 1703],hGH fold inhibition relative to solvent control,[1],10.00 fold
same,MMTV fold inhibition relative to solvent control,[2],0.90 fold
same,GCSF fold inhibition relative to solvent control,[3],0.76 fold
N#Cc1ccc(Br)cc1 [Chemical 1704],hGH fold inhibition relative to solvent control,[1],4.16 fold
same,MMTV fold inhibition relative to solvent control,[2],0.94 fold
same,GCSF fold inhibition relative to solvent control,[3],0.77 fold
O=C(c1ccccc1)c1ccc(Br)cc1 [Chemical 1705],hGH fold inhibition relative to solvent control,[1],14.28 fold
same,MMTV fold inhibition relative to solvent control,[2],0.62 fold
same,GCSF fold inhibition relative to solvent control,[3],0.54 fold
Cc1cc(=O)oc2c(CN(CC(=O)O)CC(=O)O)c(O)ccc12 [Chemical 1712],hGH fold inhibition relative to solvent control,[1],8.33 fold
same,MMTV fold inhibition relative to solvent control,[2],0.94 fold
same,GCSF fold inhibition relative to solvent control,[3],0.74 fold
CC1(C)[C@H]2CC[C@]1(C)C(=O)C2 [Chemical 1720],hGH fold inhibition relative to solvent control,[1],4.76 fold
same,MMTV fold inhibition relative to solvent control,[2],0.66 fold
same,GCSF fold inhibition relative to solvent control,[3],0.65 fold
CCOC(=O)c1c[nH]c(=S)[nH]c1=O [Chemical 1740],hGH fold induction relative to solvent control,[1],17.77 fold
same,MMTV fold induction relative to solvent control,[2],0.87 fold
same,GCSF fold induction relative to solvent control,[3],0.74 fold
N[C@@H](CCCCNC(=O)OCc1ccccc1)C(=O)O [Chemical 1747],hGH fold induction relative to solvent control,[1],6.16 fold
same,MMTV fold induction relative to solvent control,[2],0.86 fold
same,GCSF fold induction relative to solvent control,[3],0.78 fold
Cc1cc(=O)oc2cc(OCC(=O)O)ccc12 [Chemical 1764],hGH fold inhibition relative to solvent control,[1],7.14 fold
same,MMTV fold inhibition relative to solvent control,[2],0.82 fold
same,GCSF fold inhibition relative to solvent control,[3],0.55 fold
Cc1c(C(=O)O)c(O)cc2c1C(=O)c1c(O)c([C@@H]3O[C@H](CO)[C@@H](O)[C@H](O)[C@H]3O)c(O)c(O)c1C2=O [Chemical 1770],hGH fold inhibition relative to solvent control,[1],10.00 fold
same,MMTV fold inhibition relative to solvent control,[2],0.57 fold
same,GCSF fold inhibition relative to solvent control,[3],0.54 fold
NCCC(=O)N[C@@H](Cc1cnc[nH]1)C(=O)O [Chemical 1771],hGH fold inhibition relative to solvent control,[1],10.00 fold
same,MMTV fold inhibition relative to solvent control,[2],0.72 fold
same,GCSF fold inhibition relative to solvent control,[3],0.71 fold
Cc1cc(C2(c3cc(C)c(O)c(CN(CC(=O)O)CC(=O)O)c3)OC(=O)c3ccccc32)cc(CN(CC(=O)O)CC(=O)O)c1O [Chemical 1773],hGH fold inhibition relative to solvent control,[1],10.00 fold
same,MMTV fold inhibition relative to solvent control,[2],0.67 fold
same,GCSF fold inhibition relative to solvent control,[3],0.62 fold
N=c1cc2oc3cc(N)ccc3nc-2c2ccccc12 [Chemical 1776],hGH fold induction relative to solvent control,[1],0.15 fold
same,MMTV fold induction relative to solvent control,[2],1.36 fold
same,GCSF fold induction relative to solvent control,[3],3.50 fold
CN(C)C(=S)SCC#N [Chemical 1793],hGH fold induction relative to solvent control,[1],0.52 fold
same,MMTV fold induction relative to solvent control,[2],1.21 fold
same,GCSF fold induction relative to solvent control,[3],9.50 fold
O=C(O)C1CCC1 [Chemical 1804],hGH fold induction relative to solvent control,[1],9.41 fold
same,MMTV fold induction relative to solvent control,[2],0.49 fold
same,GCSF fold induction relative to solvent control,[3],1.05 fold
O=c1[nH]c(=O)c2nc3ccccc3nc2[nH]1 [Chemical 1890],hGH fold inhibition relative to solvent control,[1],5.26 fold
same,MMTV fold inhibition relative to solvent control,[2],0.58 fold
same,GCSF fold inhibition relative to solvent control,[3],0.80 fold
Nc1c2ccccc2nc2ccccc12 [Chemical 1904],hGH fold induction relative to solvent control,[1],0.54 fold
same,MMTV fold induction relative to solvent control,[2],0.82 fold
same,GCSF fold induction relative to solvent control,[3],4.12 fold
Brc1cccc(-c2ccccc2)c1 [Chemical 1994],hGH fold induction relative to solvent control,[1],0.34 fold
same,MMTV fold induction relative to solvent control,[2],0.63 fold
same,GCSF fold induction relative to solvent control,[3],3.29 fold
CC(C)(C)c1ccc(Br)cc1 [Chemical 2001],hGH fold induction relative to solvent control,[1],0.74 fold
same,MMTV fold induction relative to solvent control,[2],1.12 fold
same,GCSF fold induction relative to solvent control,[3],3.11 fold
Cc1n[nH]c(C)c1Br [Chemical 2009],hGH fold inhibition relative to solvent control,[1],0.57 fold
same,MMTV fold inhibition relative to solvent control,[2],0.64 fold
same,GCSF fold inhibition relative to solvent control,[3],3.70 fold
Nc1c(Br)cc([N+](=O)[O-])cc1[N+](=O)[O-] [Chemical 2010],hGH fold inhibition relative to solvent control,[1],0.63 fold
same,MMTV fold inhibition relative to solvent control,[2],3.57 fold
same,GCSF fold inhibition relative to solvent control,[3],0.80 fold
COc1c(F)cc(Br)cc1[N+](=O)[O-] [Chemical 2030],hGH fold induction relative to solvent control,[1],0.67 fold
same,MMTV fold induction relative to solvent control,[2],0.87 fold
same,GCSF fold induction relative to solvent control,[3],5.53 fold
O=C(O)c1ccc(Br)o1 [Chemical 2035],hGH fold inhibition relative to solvent control,[1],7.14 fold
same,MMTV fold inhibition relative to solvent control,[2],0.89 fold
same,GCSF fold inhibition relative to solvent control,[3],0.57 fold
Nc1nc2c(nc(Br)n2[C@@H]2O[C@H](CO)[C@@H](O)[C@H]2O)c(=O)[nH]1 [Chemical 2036],hGH fold inhibition relative to solvent control,[1],4.34 fold
same,MMTV fold inhibition relative to solvent control,[2],0.81 fold
same,GCSF fold inhibition relative to solvent control,[3],0.58 fold
CCCCCCCCCCCCCCCCBr [Chemical 2037],hGH fold inhibition relative to solvent control,[1],4.00 fold
same,MMTV fold inhibition relative to solvent control,[2],0.50 fold
same,GCSF fold inhibition relative to solvent control,[3],0.51 fold
COc1cc2oc(=O)cc(CBr)c2cc1OC [Chemical 2064],hGH fold induction relative to solvent control,[1],1.10 fold
same,MMTV fold induction relative to solvent control,[2],2.53 fold
same,GCSF fold induction relative to solvent control,[3],0.82 fold
Cc1n[nH]cc1Br [Chemical 2082],hGH fold inhibition relative to solvent control,[1],0.65 fold
same,MMTV fold inhibition relative to solvent control,[2],1.23 fold
same,GCSF fold inhibition relative to solvent control,[3],5.26 fold
CC(CCl)CBr (stereo not drawn) [Chemical 2096],hGH fold induction relative to solvent control,[1],0.61 fold
same,MMTV fold induction relative to solvent control,[2],0.89 fold
same,GCSF fold induction relative to solvent control,[3],3.27 fold
ClCCCCCBr [Chemical 2097],hGH fold induction relative to solvent control,[1],0.88 fold
same,MMTV fold induction relative to solvent control,[2],1.22 fold
same,GCSF fold induction relative to solvent control,[3],5.09 fold
OCc1cccc(Cl)c1 [Chemical 2121],hGH fold inhibition relative to solvent control,[1],0.40 fold
same,MMTV fold inhibition relative to solvent control,[2],1.14 fold
same,GCSF fold inhibition relative to solvent control,[3],4.76 fold
ClCc1ccc(Cl)cc1 [Chemical 2129],hGH fold induction relative to solvent control,[1],0.75 fold
same,MMTV fold induction relative to solvent control,[2],0.95 fold
same,GCSF fold induction relative to solvent control,[3],3.23 fold
O=C1CCCCC1Cl (stereo not drawn) [Chemical 2148],hGH fold induction relative to solvent control,[1],0.92 fold
same,MMTV fold induction relative to solvent control,[2],2.82 fold
same,GCSF fold induction relative to solvent control,[3],0.45 fold
O=C(N[C@H](CO)[C@H](O)c1ccc([N+](=O)[O-])cc1)C(Cl)Cl [Chemical 2191],hGH fold induction relative to solvent control,[1],0.35 fold
same,MMTV fold induction relative to solvent control,[2],7.32 fold
same,GCSF fold induction relative to solvent control,[3],0.37 fold
"CC(=O)n1ccnc1 [Chemical #58, 1-Acetylimidazole]",hGH fold induction relative to solvent control,[1],0.17 fold
same,MMTV fold induction relative to solvent control,[2],0.42 fold
same,GCSF fold induction relative to solvent control,[3],6.03 fold
"Nc1nc(=O)n([C@H]2C[C@H](O)[C@@H](CO)O2)cc1Br [Chemical #542, 5-Bromo-2'-deoxycytidine]",hGH fold induction relative to solvent control,[1],1.08 fold
same,MMTV fold induction relative to solvent control,[2],1.26 fold
same,GCSF fold induction relative to solvent control,[3],6.28 fold
"O=c1[nH]c(=O)n([C@H]2C[C@H](O)[C@@H](CO)O2)cc1Br [Chemical #543, 5-Bromo-2'-deoxyuridine]",hGH fold induction relative to solvent control,[1],0.72 fold
same,MMTV fold induction relative to solvent control,[2],0.98 fold
same,GCSF fold induction relative to solvent control,[3],7.17 fold
"CC(=O)N(C)c1ccc(N)cc1 [Chemical #1374, 4'-Amino-N-methyl-acetanilide]",hGH fold induction relative to solvent control,[1],0.05 fold
same,MMTV fold induction relative to solvent control,[2],1.05 fold
same,GCSF fold induction relative to solvent control,[3],11.03 fold
"CN(C)c1ccc(C(=C2C=CC(=[N+](C)C)C=C2)c2ccc(N(C)C)cc2)cc1 [Chemical #1780, Crystal Violet]",hGH fold induction relative to solvent control,[1],0.38 fold
same,MMTV fold induction relative to solvent control,[2],1.15 fold
same,GCSF fold induction relative to solvent control,[3],20.39 fold
